Test results published in patent publication US5100776A, “Immunological detection process for herbicides” (Dr. Pfeiffer Bioanalytik KG, priority 1987, dated 1992).

Tested on: antibody (high specificity for atrazine)
Test: Cross-reactivity of triazines and other herbicides in competitive enzyme immunoassay (inhibition of enzyme tracer binding)
Parameters: species or system rabbits
Conditions: Cross-activity at a concentration of 2 ppb; inhibition of the enzymatic detection system
Text: For the preparation of an antibody A, which is preferably directed against the side [drawing 3] of the atrazine molecule, at first the methylthioether group of the triazine ametryn is sulfoxidized with peroxy acid and then the modified ametryn is coupled directly with the beef serum albumin. In the analogous way, for the development of an antibody B, which is preferentially directed against the side: [drawing 4] of the atrazine molecule, one of the ethylamino groups of the triazine simazine is bonded by the carbodiimide process to the protein. Lastly an antibody C which preferably responds to the side: [drawing 5] of the atrazine is produced by coupling the herbicide propazine via one of the isopropylamino groups with the carrier matrix.
The conjugates prepared as above are inoculated for the generation of antibodies A, B and C in laboratory animals (rabbits) which are then extracted from the sera of the immunized animals by known processes or by affinity chromatography by substituents according to formula (I).
The antibodies obtained are adsorbed on the polystyrene surface of the microtiter cavities. To this end, the antibodies are dissolved in carbonate buffer (Na2 CO3 /NaHCO3 : 50 mmol/liter; pH 9.6) and respectively 0.25 ml of the solution obtained is pipetted into the individual cavities of the microtiter plate. In the following incubation takes place overnight at room temperature and washing takes place next day with TBS buffer. The well covered plates are then stored dry at -20° C. For analysis 180 μl of the aqueous sample to be investigated (concentration of the substance investigated is from 1 μg/l to 200 mg/l) are poured into the cavities and respectively 50 μl enzyme tracer, a conjugate of alkaline phosphatase and a triazine, which is selected depending on the type of the antibody, are added in the cavities. If the detection is carried out with antibody A, ametryn is coupled with the enzyme, but if antibody B or antibody C are present, simazine or propazine are used.
The solutions are mixed by brief horizontal shaking of the microtiter plate. After a further incubation period of 1 hour at 20° C., by washing with TBS buffer (50 mmol/l tris-(hydroxymethyl)-aminomethane, 1 mmol/l MgCl2, 50 mmol/l NaCl, pH 7.8 with HCl, 0.05% of polyoxyethylene sorbitan monooleate) all the molecules which are not bonded on the antibody positions are removed. For the quantitative detection of the bonded enzyme tracer, respectively 125 μl phosphatase substrate solution (1 mg p-nitrophenylphosphate per ml carbonate buffer) are poured into the individual cavities. The enzyme reaction takes place at 20° C., but can be accelerated by incubation at higher temperature. The absorption of the solution in the individual cavities is measured by a vertical ray photometer on the wavelength […]. If it is wished to move into the range of higher sensitivities, overnight incubation at 4° C. is recommended. But it must be recalled that without special demands on reagent, device and spatial unit reproducible results in the ppt range are not attainable. The computation of the antigen concentration of the sample is based on the following background. The enzyme tracer bonds at first with the free antibody bonding positions, which are left over after incubation with the sample antigen. Thus in the presence of high concentrations of sample antigen only few enzyme tracers are bonded, but with lower concentration of sample antigens, on the other hand, many enzyme tracers are bonded. The amount of the bonded enzyme tracer is therefore a function of the sample antigen concentration. The absorption of the reacted substrate amount (color reaction from colorless to yellow) is used as the measurement magnitude for the bonding of the enzyme tracer.
Absorption ratio of unknown sample (B=AB AuB) and zero sample (BO=ABO -AuB):
B/BO=(AB -AuB l)/(ABO -AuB) […]

Compound	inhibition (%)
CCNc1nc(N)nc(SC)n1 [desisopropylametryn]	16.5
Cc1cccc(C)c1N(Cn1cccn1)C(=O)CCl [metazachlor]	15.2
O=C(Oc1ccccc1)n1c(C(F)(F)F)nc2cc(Cl)c(Cl)cc21 [fenazaflor]	4.4
CCNc1nc(Cl)nc(NC(C)C)n1 [atrazine, 2-chloro-4-ethylamino-6-isopropylamino-1,3,5-triazine]	6.0
CCNc1nc(NC(C)C)nc(SC)n1 [ametryn]	21.4
CNC(=O)N(C)c1nc2ccccc2s1 [metabenzthiazuron]	8.3
CSc1nc(N)nc(NC(C)C)n1 [desethylametryn]	16.8
CCC(C)n1c(=O)[nH]c(C)c(Br)c1=O (stereo not drawn) [bromazile]	11.1
CSc1nnc(C(C)(C)C)c(=O)n1N [metribuzine]	6.7
